Where two headings read alike, the source gives them in different places. Positions of bridges follow the written chain, without caps; N, C: chain ends. Non-standard residues stand in square brackets, D forms with d. Residues, ends and D or L forms follow the SMILES beside them. Nle = CCCC[C@H](N)C(=O)O; Dab = NCC[C@H](N)C(=O)O
Columns and labels:
[1] = system: Lizard (Anolis carolinensis) Skin; format: cell-based
Text: (§1) Based upon the structural relationship of alpha-MSH (and its analogues and fragments) to its biological potency, using in vitro a frog skin bioassay system, the active site of alpha-MSH appears to be the common active core sequence suitably modified Ac-Met-Glu-His-Phe-Arg-Trp-Gly-NH₂. This fragment (Alpha-MSH₄₋₁₀) has been synthesized and tested for its melanocyte stimulating activity in frog skin and shown to be a weak agonist when compared to the native hormone. The amino acid exchanges in position 5(Glu) and 10(Gly) have not, previous to the making of the present invention, been investigated. […] The following table summarizes some of these studies.
(§2) The biological potencies of alpha-MSH, the linear, and the cyclic analogues were determined by their ability to stimulate melanosome dispersion in vitro in the frog and lizard bioassays. These in vitro assays provide clear cut dose response curves (between 2.5 x 10⁻¹¹ and 4 x 10⁻¹⁰ M) and can detect minimal concentration of alpha-MSH of about 10⁻¹¹ M. The assays are based upon the centrifugal dispersion of melanosomes (melanin granules) within the dendritic processes of integumental dermal melanophores leading to darkening of the skin. All the test solutions were prepared via serial dilutions from a stock solution (10⁻⁴ M). The frogs (Rans pipiens) used in these evaluations were obtained from Kons Scientific, Germantown, WI, and the lizards (Anolis carolinensis) were from the Snake Farm, La Place, LA.

Frog (Rana pipiens) Skin = format: cell-based
Text: as §1, §2

[2] = linear analogues, P = prolonged action
[3] = linear analogues, relative to alpha-MSH = 1.0
[4] = cyclic analogues, p = prolonged action
[5] = cyclic analogues, relative to alpha-MSH = 1.0

Compound	Residual Activity Lizard [1, 2]	Biological Potency Lizard [1, 3]	Residual Activity Frog (Frog (Rana pipiens) Skin; [2])	Biological Potency Frog (Frog (Rana pipiens) Skin; [3])	Residual Activity Lizard [1, 4]	Biological Potency Lizard [1, 5]	Residual Activity Frog (Frog (Rana pipiens) Skin; [4])	Biological Potency Frog (Frog (Rana pipiens) Skin; [5])	Biological Potency Lizard [1]	Biological Potency Frog (Frog (Rana pipiens) Skin)
CCCC[C@H](NC(C)=O)C(=O)N[C@@H](CC(=O)O)C(=O)N[C@@H](Cc1c[nH]cn1)C(=O)N[C@H](Cc1ccccc1)C(=O)N[C@@H](CCCNC(=N)N)C(=O)N[C@@H](Cc1c[nH]c2ccccc12)C(=O)NCC(N)=O [Analogue 5]	P(-)	8.0	P(-)	0.1						
CCCC[C@H](NC(C)=O)C(=O)N[C@@H](CCC(=O)O)C(=O)N[C@@H](Cc1c[nH]cn1)C(=O)N[C@H](Cc1ccccc1)C(=O)N[C@@H](CCCNC(=N)N)C(=O)N[C@@H](Cc1c[nH]c2ccccc12)C(=O)N[C@@H](CCCCN)C(N)=O [Analogue 6]	P(-)	8.0	P(-)	0.2						
CCCC[C@H](NC(C)=O)C(=O)N[C@@H](CC(=O)O)C(=O)N[C@@H](Cc1c[nH]cn1)C(=O)N[C@H](Cc1ccccc1)C(=O)N[C@@H](CCCNC(=N)N)C(=O)N[C@@H](Cc1c[nH]c2ccccc12)C(=O)N[C@@H](CCCN)C(N)=O [Analogue 9]	P(-)	10.0		0.9						
CCCC[C@H](NC(=O)[C@H](CO)NC(=O)[C@H](Cc1ccc(O)cc1)NC(=O)[C@H](CO)NC(C)=O)C(=O)N[C@@H](CC(=O)O)C(=O)N[C@@H](Cc1c[nH]cn1)C(=O)N[C@H](Cc1ccccc1)C(=O)N[C@@H](CCCNC(=N)N)C(=O)N[C@@H](Cc1c[nH]c2ccccc12)C(=O)N[C@@H](CCCCN)C(=O)NCC(=O)N1CCC[C@H]1C(=O)N[C@H](C(N)=O)C(C)C [Analogue 2] (Ac-SYS[Nle]DH[dF]RWKGPV-NH2)	P(-)	8.0	P(+)	9.0						
CCCC[C@H](NC(C)=O)C(=O)N[C@@H](CCC(=O)O)C(=O)N[C@@H](Cc1c[nH]cn1)C(=O)N[C@H](Cc1ccccc1)C(=O)N[C@@H](CCCNC(=N)N)C(=O)N[C@@H](Cc1c[nH]c2ccccc12)C(=O)N[C@@H](CCN)C(N)=O [Analogue 10] (Ac-[Nle]EH[dF]RW[Dab]-NH2)	P(±)	10.0	P(±)	0.9						
CCCC[C@H](NC(C)=O)C(=O)N[C@H]1CC(=O)NC[C@@H](C(N)=O)NC(=O)[C@H](Cc2c[nH]c3ccccc23)NC(=O)[C@H](CCCNC(=N)N)NC(=O)[C@@H](Cc2ccccc2)NC(=O)[C@H](Cc2c[nH]cn2)NC1=O [Analogue 20]					p(-)	5.0	p(-)	0.01		
CCCC[C@H](NC(C)=O)C(=O)N[C@H]1CC(=O)NCCC[C@@H](C(N)=O)NC(=O)[C@H](Cc2c[nH]c3ccccc23)NC(=O)[C@H](CCCNC(=N)N)NC(=O)[C@@H](Cc2ccccc2)NC(=O)[C@H](Cc2c[nH]cn2)NC1=O [Analogue 18]					p(-)	20.0	p(-)	1.0		
CCCC[C@H](NC(C)=O)C(=O)N[C@@H](CCC(=O)O)C(=O)N[C@@H](Cc1c[nH]cn1)C(=O)N[C@@H](Cc1ccccc1)C(=O)N[C@@H](CCCNC(=N)N)C(=O)N[C@@H](Cc1c[nH]c2ccccc12)C(=O)N[C@@H](CCCCN)C(N)=O [Analogue 13]	P(-)	0.08	P(+)	0.001						
CCCC[C@H](NC(C)=O)C(=O)N[C@@H](CC(=O)O)C(=O)N[C@@H](Cc1c[nH]cn1)C(=O)N[C@@H](Cc1ccccc1)C(=O)N[C@@H](CCCNC(=N)N)C(=O)N[C@@H](Cc1c[nH]c2ccccc12)C(=O)N[C@@H](CCCCN)C(N)=O [Analogue 14]	P(-)	0.08								
CCCC[C@H](NC(C)=O)C(=O)N[C@@H](CC(=O)O)C(=O)N[C@@H](Cc1c[nH]cn1)C(=O)N[C@H](Cc1ccccc1)C(=O)N[C@@H](CCCNC(=N)N)C(=O)N[C@@H](Cc1c[nH]c2ccccc12)C(=O)N[C@@H](CCCCN)C(=O)NCC(=O)N1CCC[C@H]1C(=O)N[C@H](C(N)=O)C(C)C [Analogue 4] (Ac-[Nle]DH[dF]RWKGPV-NH2)	P(+)	10.0	P(+)	1.0						
CCCC[C@H](NC(C)=O)C(=O)N[C@@H](CC(=O)O)C(=O)N[C@@H](Cc1c[nH]cn1)C(=O)N[C@H](Cc1ccccc1)C(=O)N[C@@H](CCCNC(=N)N)C(=O)N[C@@H](Cc1c[nH]c2ccccc12)C(=O)N[C@@H](CN)C(N)=O [Analogue 12]	P(-)	8.0	P(-)	0.2						
CCCC[C@H](NC(C)=O)C(=O)N[C@H]1CCC(=O)NCCCC[C@@H](C(N)=O)NC(=O)[C@H](Cc2c[nH]c3ccccc23)NC(=O)[C@H](CCCNC(=N)N)NC(=O)[C@@H](Cc2ccccc2)NC(=O)[C@H](Cc2c[nH]cn2)NC1=O [Analogue 16]					p(+)	9.0	p(+)	0.5		
CCCC[C@H](NC(C)=O)C(=O)N[C@H]1CC(=O)NCC[C@@H](C(N)=O)NC(=O)[C@H](Cc2c[nH]c3ccccc23)NC(=O)[C@H](CCCNC(=N)N)NC(=O)[C@@H](Cc2ccccc2)NC(=O)[C@H](Cc2c[nH]cn2)NC1=O [Analogue 19]					p(-)	5.0	p(-)	1.0		
CCCC[C@H](NC(C)=O)C(=O)N[C@H]1CCC(=O)NCCCC[C@@H](C(=O)NCC(=O)N2CCC[C@H]2C(=O)N[C@H](C(N)=O)C(C)C)NC(=O)[C@H](Cc2c[nH]c3ccccc23)NC(=O)[C@H](CCCNC(=N)N)NC(=O)[C@@H](Cc2ccccc2)NC(=O)[C@H](Cc2c[nH]cn2)NC1=O [Analogue 15] (Ac-[Nle]EH[dF]RWKGPV-NH2; lactam 2-7)					p(+)		p(+)		6.0	1.0
CCCC[C@H](NC(C)=O)C(=O)N[C@@H](CC(=O)O)C(=O)N[C@@H](Cc1c[nH]cn1)C(=O)N[C@H](Cc1ccccc1)C(=O)N[C@@H](CCCNC(=N)N)C(=O)N[C@@H](Cc1c[nH]c2ccccc12)C(=O)N[C@@H](CCCCN)C(N)=O [Analogue 7]	P(-)	8.0								
